Experimental data: patent publication US8124624B2, “Substituted sulfonamide compounds” (Gruenenthal GmbH, priority 2008, dated 2012)

Key:
[1] = molecular target: T1, human B1R (Homo sapiens, UniProt P46663); assay: FLIPR Ca2+ influx assay, B1R antagonism, human (hB1R CHO K1 cells); format: cell-based; conditions: test substance 10 μM, CHO K1 cells stably transfected with human B1R, agonist Lys-Des-Arg9-bradykinin at EC80, % inhibition compared with maximum achievable inhibition; for inhibition at 10 µM: read-out: B1R antagonism, human [10 μM] % inhibition
T1 construct: expressed in transfected cells; host or cells: CHO K1 cells (hB1R cells)
T1 sequence (P46663 1-353): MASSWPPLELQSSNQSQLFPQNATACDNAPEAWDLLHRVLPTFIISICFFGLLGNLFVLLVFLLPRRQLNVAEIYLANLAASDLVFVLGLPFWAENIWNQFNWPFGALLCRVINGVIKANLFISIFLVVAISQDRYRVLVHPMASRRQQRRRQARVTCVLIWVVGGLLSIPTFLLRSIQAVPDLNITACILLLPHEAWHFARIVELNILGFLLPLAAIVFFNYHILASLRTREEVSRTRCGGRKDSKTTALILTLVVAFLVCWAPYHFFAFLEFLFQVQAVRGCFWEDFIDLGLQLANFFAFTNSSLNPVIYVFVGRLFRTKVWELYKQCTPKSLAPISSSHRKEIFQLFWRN
Procedure: The agonistic or antagonistic action of substances can be quantified on the bradykinin receptor 1 (B1R) of the species human and rat using ectopically expressing cell lines (CHO K1 cells) and with the aid of a Ca^2+-sensitive dye (Fluo-4) using a fluorescent imaging plate reader (FLIPR). The indication in % activation is based on the Ca^2+ signal after addition of Lys-Des-Arg^9-bradykinin (0.5 nM) or Des-Arg^9-bradykinin (100 nM). Antagonists lead to suppression of the Ca^2+ influx after the addition of the agonist. % Inhibition compared with the maximum achievable inhibition is indicated.
The agonistic or antagonistic action of substances can be determined on the bradykinin receptor 1 (B1R) of the species human and rat using the following assay. According to this assay, the Ca^2+ influx through the channel is quantified with the aid of a Ca^2+-sensitive dye (Fluo-4 type, Molecular Probes Europe BV, Leiden, Netherlands) using a Fluorescent Imaging Plate Reader (FLIPR, Molecular Devices, Sunnyvale, USA).
Chinese hamster ovary cells (CHO K1 cells) which have been stably transfected with the human B1R gene (hB1R cells) or with the B1R gene of the rat (rB1R cells) are used. For functional studies, the cells are plated out on black 96-well plates having a clear base (BD Biosciences, Heidelberg, Germany or Greiner, Frickenhausen, Germany) in a density of 20,000-35,000 cells/well. The cells are incubated overnight at 37° C. and with 5% CO2 in culture medium (hB1R cells: Nutrient Mixture Ham's F12, Gibco Invitrogen GmbH, Karlsruhe, Germany or DMEM, Sigma-Aldrich, Taufkirchen, Germany; rB1R cells: D-MEM/F12, Gibco Invitrogen GmbH, Karlsruhe, Germany), with 10 vol. % FBS (fetal bovine serum, Gibco Invitrogen GmbH, Karlsruhe, Germany or PAN Biotech GmbH, Aidenbach, Germany).
On the following day, the cells are loaded for 60 minutes at 37° C. with 2.13 μM Fluo-4 (Molecular Probes Europe BV, Leiden, Netherlands) in HBSS buffer (Hank's buffered saline solution, Gibco Invitrogen GmbH, Karlsruhe, Germany) […] (Sigma-Aldrich, Taufkirchen, Germany) and 10 mM HEPES (Sigma-Aldrich, Taufkirchen, Germany). The plates are then washed twice with HBSS buffer, and HBSS buffer additionally containing 0.1% BSA (bovine serum albumin; Sigma-Aldrich, Taufkirchen, Germany), 5.6 mM glucose and 0.05% gelatin (Merck KGaA, Darmstadt, Germany) is added to the plates. After incubation for a further 20 minutes at room temperature, the plates are inserted into the FLIPR for Ca^2+ measurement.
Alternatively, washing is carried out with buffer A (15 mM HEPES, 80 mM NaCl, 5 mM KCl, 1.2 mM CaCl2, 0.7 mM MgSO4, 2 g/l glucose, 2.5 mM probenecid) followed by loading with buffer A with added 2.5 μM Fluo-4 and 0.025% Pluronic F127 (Sigma-Aldrich, Taufkirchen, Germany). The cells are then washed twice with buffer A and incubated for 30 minutes at room temperature with buffer A additionally containing 0.05% BSA and 0.05% gelatin and are then inserted into the FLIPR for Ca^2+ measurement.
The Ca^2+-dependent fluorescence is measured before and after the addition of substances (λex=488 nm, λem=540 nm). Quantification is carried out by measuring the highest fluorescence intensity (FC, fluorescence counts) over time.
The FLIPR protocol consists of two substance additions. Test substances (10 μM) are first pipetted onto the cells and the Ca^2+ influx is compared with the control (hB1R: Lys-Des-Arg^9-bradykinin >=50 nM; rB1R: Des-Arg^9-bradykinin 10 μM). This gives the activation in %, based on the Ca^2+ signal after addition of Lys-Des-Arg^9-bradykinin (>=50 nM) or Des-Arg^9-bradykinin (10 μM). After 10-20 minutes' incubation, Lys-Des-Arg^9-bradykinin (hB1R) or Des-Arg^9-bradykinin (rB1R) is applied in the concentration of the EC80, and the influx of Ca^2+ is likewise determined. Antagonists lead to suppression of the Ca^2+ influx. The % inhibition compared with the maximum achievable inhibition is calculated. […]

[2] = molecular target: T2, B1R of the rat (Rattus norvegicus, UniProt P97583); assay: FLIPR Ca2+ influx assay, B1R antagonism, rat (rB1R CHO K1 cells); format: cell-based; conditions: test substance 10 μM, CHO K1 cells stably transfected with rat B1R, agonist Des-Arg9-bradykinin at EC80, % inhibition compared with maximum achievable inhibition; for inhibition at 10 µM: read-out: B1R antagonism, rat [10 μM] % inhibition
T2 construct: expressed in transfected cells; host or cells: CHO K1 cells (rB1R cells)
T2 sequence (P97583 1-337): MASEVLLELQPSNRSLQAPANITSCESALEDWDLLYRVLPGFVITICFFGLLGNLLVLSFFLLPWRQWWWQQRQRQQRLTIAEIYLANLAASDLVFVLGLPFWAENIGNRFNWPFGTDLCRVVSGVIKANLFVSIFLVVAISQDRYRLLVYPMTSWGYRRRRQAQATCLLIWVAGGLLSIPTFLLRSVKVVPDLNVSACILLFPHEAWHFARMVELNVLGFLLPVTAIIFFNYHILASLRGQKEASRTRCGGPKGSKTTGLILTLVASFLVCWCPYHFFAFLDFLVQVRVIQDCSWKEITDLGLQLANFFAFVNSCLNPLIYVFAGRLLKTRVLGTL
Summary of the method: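 CHO K1 cells stably expressing human or rat B1R were loaded with Fluo-4, and Ca^2+ fluorescence was read on a FLIPR. After 10–20 min with test substance, agonist was added at EC80: Lys-Des-Arg^9-bradykinin for hB1R, Des-Arg^9-bradykinin for rB1R. % inhibition is relative to maximal inhibition; IC50 from multiple concentrations, n=2–3, N≥2.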

Row | Structure (SMILES) | inhibition at 10 µM [1] | inhibition at 10 µM [2] | B1R antagonism, human [10 μM] % inhibition [1] | B1R antagonism, rat [10 μM] % inhibition [2]
1 | O=C(COCC1CCc2ccccc2N1S(=O)(=O)c1ccc(Cl)c(Cl)c1)N1CCC(CCCN2CCCC2)(c2cccnc2)CC1 (centres unmarked) [Example 18, 2-((1-(3,4-Dichlorophenylsulfonyl)-1,2,3,4-tetrahydroquinolin-2-yl)methoxy)-1-(4-(pyridin-3-yl)-4-(3-(pyrrolidin-1-yl)propyl)piperidin-1-yl)ethanone] | 62% | 102% | – | –
2 | Cc1cc(S(=O)(=O)N2CCCCC2CCC(=O)N2CCC(CCCN(C)C)(c3cccnc3)CC2)c(C)cc1Cl (centres unmarked) [Example 19, 3-(1-(4-Chloro-2,5-dimethylphenylsulfonyl)piperidin-2-yl)-1-(4-(3-(dimethylamino)propyl)-4-(pyridin-3-yl)piperidin-1-yl)propan-1-one] | 82% | 98% | – | –
3 | CN(C)CCCC1(c2cccnc2)CCN(C(=O)CC(NS(=O)(=O)c2ccc3ccccc3c2)c2ccccc2)CC1 (centres unmarked) [Example 20, N-(3-(4-(3-(Dimethylamino)propyl)-4-(pyridin-3-yl)piperidin-1-yl)-3-oxo-1-phenylpropyl)naphthalene-2-sulfonamide] | 57% | 94% | – | –
4 | CN(C)CCCC1(c2cccnc2)CCN(C(=O)COCC2CCc3ccccc3N2S(=O)(=O)c2ccc(Cl)c(Cl)c2)CC1 (centres unmarked) [Example 21, 2-((1-(3,4-Dichlorophenylsulfonyl)-1,2,3,4-tetrahydroquinolin-2-yl)methoxy)-1-(4-(3-(dimethylamino)propyl)-4-(pyridin-3-yl)piperidin-1-yl)ethanone] | 56% | 98% | – | –
5 | COc1cc(C)c(S(=O)(=O)N2CCCCC2COCC(=O)N2CCC(CCCN(C)C)(c3cccnc3)CC2)c(C)c1 (centres unmarked) [Example 22, 1-(4-(3-(Dimethylamino)propyl)-4-(pyridin-3-yl)piperidin-1-yl)-2-((1-(4-methoxy-2,6-dimethylphenylsulfonyl)piperidin-2-yl)methoxy)ethanone] | 98% | 102% | – | –
6 | COc1cc(C)c(S(=O)(=O)N(C)CCOCC(=O)N2CCC(CCCN(C)C)(c3cccnc3)CC2)c(C)c1 [Example 23, N-(2-(2-(4-(3-(Dimethylamino)propyl)-4-(pyridin-3-yl)piperidin-1-yl)-2-oxoethoxy)ethyl)-4-methoxy-N,2,6-trimethylbenzenesulfonamide] | 100% | 101% | – | –
7 | CN(C)CCCC1(c2cccnc2)CCN(C(=O)CC2CCCCN2S(=O)(=O)c2cccc(C(F)(F)F)c2)CC1 (centres unmarked) [Example 24, 1-(4-(3-(Dimethylamino)propyl)-4-(pyridin-3-yl)piperidin-1-yl)-2-(1-(3-(trifluoromethyl)phenylsulfonyl)piperidin-2-yl)ethanone] | 38% | 60% | – | –
8 | COc1cc(C)c(S(=O)(=O)N2CCCC[C@H]2COCC(=O)N2CCC(CN3CCCC3)(c3cccnc3)CC2)c(C)c1 [Example 25, (S)-2-((1-(4-Methoxy-2,6-dimethylphenylsulfonyl)piperidin-2-yl)methoxy)-1-(4-(pyridin-3-yl)-4-(pyrrolidin-1-ylmethyl)piperidin-1-yl)ethanone] | 97% | 63% | – | –
9 | COc1cc(C)c(S(=O)(=O)N2CCCCC2COCC(=O)N2CCC(CCCN3CCCC3)(c3cccnc3)CC2)c(C)c1 (centres unmarked) [Example 26, 2-[[1-[(4-Methoxy-2,6-dimethyl-phenyl)sulfonyl]-piperidin-2-yl]-methoxy]-1-[4-pyridin-3-yl-4-(3-pyrrolidin-1-yl-propyl)-piperidin-1-yl]-ethanone] | – | – | 100% | 103%
10 | COc1cc(C)c(S(=O)(=O)N2CCCCC2COCC(=O)N2CCC(CCCN3CCCC3)(c3cccnc3)CC2)c(C)c1 (centres unmarked) [Example 27, 2-[[1-[(4-Methoxy-2,6-dimethyl-phenyl)sulfonyl]-piperidin-2-yl]-methoxy]-1-[4-pyridin-3-yl-4-(3-pyrrolidin-1-yl-propyl)-piperidin-1-yl]-ethanone] | – | – | 100% | 102%
11 | COc1cc(C)c(S(=O)(=O)N(C)CCOCC(=O)N2CCC(CCCN3CCCC3)(c3cccnc3)CC2)c(C)c1 [Example 29, 4-Methoxy-N,2,6-trimethyl-N-[2-[2-oxo-2-[4-pyridin-3-yl-4-(3-pyrrolidin-1-yl-propyl)-piperidin-1-yl]-ethoxy]-ethyl]-benzenesulfonic acid amide] | – | – | 100% | 101%
12 | COc1cc(C)c(S(=O)(=O)N(C)CCOCC(=O)N2CCC(CCCN3CCCC3)(c3cccnc3)CC2)c(C)c1C [Example 31, 4-Methoxy-N,2,3,6-tetramethyl-N-[2-[2-oxo-2-[4-pyridin-3-yl-4-(3-pyrrolidin-1-yl-propyl)-piperidin-1-yl]-ethoxy]-ethyl]-benzenesulfonic acid amide] | 100% | 101% | – | –
13 | COc1cc(C)c(S(=O)(=O)N(CCOCC(=O)N2CCC(CCCN3CCCC3)(c3cccnc3)CC2)Cc2ccccc2)c(C)c1 [Example 37, N-Benzyl-4-Methoxy-2,6-dimethyl-N-[2-[2-oxo-2-[4-pyridin-3-yl-4-(3-pyrrolidin-1-yl-propyl)-piperidin-1-yl]-ethoxy]-ethyl]-benzenesulfonic acid amide] | 100% | 103% | – | –
